Each block holds one substance with its values, some of them ahead of it.
What was measured:
normal pooled plasma = experiment: Blood coagulation activities (aPTT, PT, fibrinogen) in normal pooled plasma; parameters: species or system human; details: after incubation with 50 or 100 μg/ml
Description: MA-CDPS, HP-CDPS, CE-CDPS and CDPS (as defined in examples 3-4 and characterised in table 1) were prepared as buffered solutions at various concentrations. The polysaccharides were incubated with normal pooled plasma prepared out of 40 healthy volunteers and analyzed for their effects on activated partial thromboplastin time (aPTT), prothrombin time (PT) and fibrinogen levels on a STA Compact® coagulation analyzer (available from Diagnostica Stago, Asnieres, France) according to the manufacturers instructions.

[1] = test system: healthy donor thrombocytes; experiment: Platelet activation (CD62p, flow cytometry) by HIT patient anti-heparin/PF4 antibodies; type: cell-based, human; details: for ratio: % CD62p+ (with substance)/% CD62p+ (without) / ΔCD62p+ %: percentage increases in CD62p positive platelets: 0.3 IU heparin or 5 μg/ml polysaccharide
Description: The activation of healthy donor thrombocytes by HIT patient anti-heparin/PF4 antibodies in the presence of heparin and the differently sulfated forms of β-cyclodextrin was tested. […] The expression of CD62p by the activated platelets was assayed by means of flow cytometry with a FC500 analyzer (available from Beckman Coulter, Belgium). Platelet-rich plasma solution (PRP) was prepared by slow centrifugation (10 minutes at 180 g) of fresh citrate anti-coagulated blood (1:9 v/v, 0.129 mol/L or 3.8% trisodium citrate buffer), obtained from normal donors. HIT Ab positive plasma samples from patients and HIT Ab negative control plasma from healthy donors were prepared by double centrifugation (15 minutes at 2230 rpm) of fresh citrate anti-coagulated blood. 70 μl of PRP was incubated with 20 μL of HIT Ab containing plasma optionally in the presence of heparin (0.3 IU/ml) or the relevant β-cyclodextrin derivative (5 μg/ml). Experiments with each HIT Ab positive plasma sample were repeated independently using thrombocytes of 2 donors (A and B), to avoid the possibility of non-reactive platelets.
Following the initial 40 minutes incubation step, 5 μl of the platelets solution was transferred to a fresh tube with 85 μL phosphate buffered saline (PBS) containing 1% bovine serum albumin (BSA) and 0.1% Na-azide, 5 μl (0.25 μg) monoclonal anti-CD41 antibodies (Ab) (phycoerythrin-Texas Red Energy coupled dye (ECD)-conjugated, Beckman Coulter) and 5 μl (0.125 μg) of anti-CD62p Ab (phycoerythrin (PE)-conjugated, Beckman Coulter). CD41 (Glycoprotein […]) is a selective marker of platelets and platelet precursors. CD62p is a constituent of alpha granules and is released to the platelet surface on activation.
After 20 minutes of incubation at room temperature, the total volume of the platelet suspension was adjusted to 600 μL buffered solution and evaluated without delay by flow cytometry. 20,000 events per sample were analysed and the platelet populations were gated by side scatter characteristics and the platelet marker CD41. The fraction of activated platelets among the total platelet population was determined and relative CD62p ratios to the internal controls were calculated. [ratio: % CD62p^+ (0.3 IU Heparine or 5 μg/ml β-cyclodextrin derivative)/% CD62p^+ (0 IU Heparine or 0 μg/ml β-cyclodextrin derivative)]. Test results for the heparin treated platelets were evaluated by the scoring system described in Thromb. Haemost. (1999) 82:1255-1259. Control tests were scored positive when the calculated ratios of at least 2 donors were more then 2, based on previously obtained results with normal individuals. To evaluate the potential of the different β-cyclodextrin derivatives to induce platelet activation, both the percentages and ratios of CD62p^+ platelets after incubation with the respective β-cyclodextrin were statistically compared to the percentage and the ratio of CD62p^+ platelets after heparin incubation.

C57BI/6 male mice = experiment: Collagenase-induced knee osteoarthritis in mice, histopathology; type: in vivo
Description: Knee osteoarthritis was induced by injecting the right knees of adult (10 weeks) C57BI/6 male mice with 10 μl of a 2 U/μl collagenase type VII (Sigma C-9572, available from Sigma-Aldrich Belgium) solution. The left knee of these animals was injected with 10 μl PBS and served as a control. Two groups of each 8 mice were randomized on weight, the first group was injected subcutaneously once weekly, with 1 mg/kg of the CE-CDPS of example 3, the second group was treated with saline. Treatment was initiated three days after the mice received their intra-articular injection. The animals were fed a standard diet with tap water ad libitum and their weight was recorded twice a week. The mice were sacrificed three weeks after induction of knee osteoarthritis and the liver, kidneys and knee joints were fixed immediately in 2% neutral buffered paraformaldehyde (Fluka 76240, available from Sigma-Aldrich Belgium).
After fixation, knee joints were decalcified in 0.5 M EDTA in PBS and embedded in paraffin. 5μ tissue sections were cut and stained with haematoxylin and eosin for an analysis of the general morphology or with safranin-O for an assessment of proteoglycan content. Each 100 μm, 3 sections of the joint were evaluated.
Stained slides were submitted for evaluation. The following parameters were evaluated: synovial inflammation, fibrosis, osteophytes and erosion of cartilage. Synovial inflammation was graded from 0 to +3 as follows: 0 no changes from normal; +1 mild changes; +2 moderate changes; and +3 severe changes.
Fibrosis was scored as follows: 0 no changes from normal; +1 fibrosis without metaplasia; +2 fibrosis associated with chondroplasia; +3 fibrosis associated with metaplastic bone. Osteophytes were graded from 0 to +4 referring to the amount of osteophytes observed, with a maximum score of 1 per compartment.
Cartilage erosion was graded from 0 to +3 as follows: 0 no changes from normal; +1 only superficial erosion; +2 loss of proteoglycan in one compartment; and +3 loss of proteoglycan in different compartments. In this scoring system the femoral/tibial junction as a whole was taken in consideration by 2 independent investigators.

[2] = HIT ab plasma pat1, platelet donor dA
[3] = HIT ab plasma pat1, platelet donor dB
[4] = HIT ab plasma pat2, platelet donor dA
[5] = HIT ab plasma pat2, platelet donor dB
[6] = HIT ab plasma pat3, platelet donor dA
[7] = HIT ab plasma pat3, platelet donor dB
[8] = HIT ab plasma pat4, platelet donor dA
[9] = HIT ab plasma pat4, platelet donor dB
[10] = in the presence of plasma samples of individuals that had developed HIT Ab
[11] = 1 mg/kg subcutaneously once weekly, OA knees

- platelet activation [1, 10]: induced platelet activation
Substance: Sulfated 6-monoamino-6-monodeoxy β-cyclodextrin [MA-CDPS]
- fibrinogen concentrations (normal pooled plasma): Minor decreases
- ratio: % CD62p+ (with substance)/% CD62p+ (without) [1, 2]: 5.2
- ΔCD62p+ %: percentage increases in CD62p positive platelets [1, 2]: 74.8%
- ratio: % CD62p+ (with substance)/% CD62p+ (without) [1, 3]: 5.5
- ΔCD62p+ %: percentage increases in CD62p positive platelets [1, 3]: 69.9%
- ratio: % CD62p+ (with substance)/% CD62p+ (without) [1, 4]: 1.4
- ΔCD62p+ %: percentage increases in CD62p positive platelets [1, 4]: 9.6%
- ratio: % CD62p+ (with substance)/% CD62p+ (without) [1, 5]: 3.5
- ΔCD62p+ %: percentage increases in CD62p positive platelets [1, 5]: 17.4%
- ratio: % CD62p+ (with substance)/% CD62p+ (without) [1, 6]: 1.9
- ΔCD62p+ %: percentage increases in CD62p positive platelets [1, 6]: 16.7%
- ratio: % CD62p+ (with substance)/% CD62p+ (without) [1, 7]: 8.2
- ΔCD62p+ %: percentage increases in CD62p positive platelets [1, 7]: 32.6%
- ratio: % CD62p+ (with substance)/% CD62p+ (without) [1, 8]: 3.5
- ΔCD62p+ %: percentage increases in CD62p positive platelets [1, 8]: 51.1%
- ratio: % CD62p+ (with substance)/% CD62p+ (without) [1, 9]: 3.1
- ΔCD62p+ %: percentage increases in CD62p positive platelets [1, 9]: 63.6%

- platelet activation [1, 10]: do not significantly activate platelets
- cross-reactivity with the heparin/PF4 antibodies ([1]; paired analysis versus heparin, ratios and percentages of CD62p positive cells): no cross-reactivity
- weight of the animals (C57BI/6 male mice; 1 mg/kg subcutaneously once weekly, three weeks): did not affect
Substance: Sulfated (2-carboxyethyl)-β-cyclodextrin [CE-CDPS]
- fibrinogen concentrations (normal pooled plasma): Minor decreases
- ratio: % CD62p+ (with substance)/% CD62p+ (without) [1, 2]: 1.8
- ΔCD62p+ %: percentage increases in CD62p positive platelets [1, 2]: 13.9%
- ratio: % CD62p+ (with substance)/% CD62p+ (without) [1, 3]: 2.2
- ΔCD62p+ %: percentage increases in CD62p positive platelets [1, 3]: 14.4%
- ratio: % CD62p+ (with substance)/% CD62p+ (without) [1, 4]: 1.1
- ΔCD62p+ %: percentage increases in CD62p positive platelets [1, 4]: 2.4%
- ratio: % CD62p+ (with substance)/% CD62p+ (without) [1, 5]: 1.2
- ΔCD62p+ %: percentage increases in CD62p positive platelets [1, 5]: 1.1%
- ratio: % CD62p+ (with substance)/% CD62p+ (without) [1, 6]: 1.4
- ΔCD62p+ %: percentage increases in CD62p positive platelets [1, 6]: 7.9%
- ratio: % CD62p+ (with substance)/% CD62p+ (without) [1, 7]: 2.7
- ΔCD62p+ %: percentage increases in CD62p positive platelets [1, 7]: 10.2%
- ratio: % CD62p+ (with substance)/% CD62p+ (without) [1, 8]: 2.2
- ΔCD62p+ %: percentage increases in CD62p positive platelets [1, 8]: 22.9%
- ratio: % CD62p+ (with substance)/% CD62p+ (without) [1, 9]: 2.4
- ΔCD62p+ %: percentage increases in CD62p positive platelets [1, 9]: 45.0%
- osteophyte growth (C57BI/6 male mice; [11]): not inhibited
- pannus formation (C57BI/6 male mice; [11]): not inhibited
- synovial inflammation (C57BI/6 male mice; [11]): not inhibited
- overall cartilage damage (Safranine O staining) (C57BI/6 male mice; 1 mg/kg subcutaneously once weekly, versus PBS-treated): reduced
- cartilage proteoglycan depletion in osteoarthritis knee joints (C57BI/6 male mice; collagenase-induced knee-osteoarthritis in mice): prevented

- platelet activation [1, 10]: induced platelet activation
Substance: Sulfated (2-hydroxypropyl)-β-cyclodextrin [HP-CDPS]
- fibrinogen concentrations (normal pooled plasma): Minor decreases
- ratio: % CD62p+ (with substance)/% CD62p+ (without) [1, 2]: 4.9
- ΔCD62p+ %: percentage increases in CD62p positive platelets [1, 2]: 67.6%
- ratio: % CD62p+ (with substance)/% CD62p+ (without) [1, 3]: 5.1
- ΔCD62p+ %: percentage increases in CD62p positive platelets [1, 3]: 53.0%
- ratio: % CD62p+ (with substance)/% CD62p+ (without) [1, 4]: 1.0
- ΔCD62p+ %: percentage increases in CD62p positive platelets [1, 4]: 0.1%
- ratio: % CD62p+ (with substance)/% CD62p+ (without) [1, 5]: 1.1
- ΔCD62p+ %: percentage increases in CD62p positive platelets [1, 5]: 1.2%
- ratio: % CD62p+ (with substance)/% CD62p+ (without) [1, 6]: 2.1
- ΔCD62p+ %: percentage increases in CD62p positive platelets [1, 6]: 23.3%
- ratio: % CD62p+ (with substance)/% CD62p+ (without) [1, 7]: 4.7
- ΔCD62p+ %: percentage increases in CD62p positive platelets [1, 7]: 17.1%
- ratio: % CD62p+ (with substance)/% CD62p+ (without) [1, 8]: 4.6
- ΔCD62p+ %: percentage increases in CD62p positive platelets [1, 8]: 63.2%
- ratio: % CD62p+ (with substance)/% CD62p+ (without) [1, 9]: 2.8
- ΔCD62p+ %: percentage increases in CD62p positive platelets [1, 9]: 60.7%

Substance: heparin
- ratio: % CD62p+ (with substance)/% CD62p+ (without) [1, 2]: 4.2
- ΔCD62p+ %: percentage increases in CD62p positive platelets [1, 2]: 45.5%
- ratio: % CD62p+ (with substance)/% CD62p+ (without) [1, 3]: 2.2
- ΔCD62p+ %: percentage increases in CD62p positive platelets [1, 3]: 14.3%
- ratio: % CD62p+ (with substance)/% CD62p+ (without) [1, 4]: 2.8
- ΔCD62p+ %: percentage increases in CD62p positive platelets [1, 4]: 45.6%
- ratio: % CD62p+ (with substance)/% CD62p+ (without) [1, 5]: 3.9
- ΔCD62p+ %: percentage increases in CD62p positive platelets [1, 5]: 15.1%
- ratio: % CD62p+ (with substance)/% CD62p+ (without) [1, 6]: 4.3
- ΔCD62p+ %: percentage increases in CD62p positive platelets [1, 6]: 60.3%
- ratio: % CD62p+ (with substance)/% CD62p+ (without) [1, 7]: 8.2
- ΔCD62p+ %: percentage increases in CD62p positive platelets [1, 7]: 42.3%
- ratio: % CD62p+ (with substance)/% CD62p+ (without) [1, 8]: 2.7
- ΔCD62p+ %: percentage increases in CD62p positive platelets [1, 8]: 34.8%
- ratio: % CD62p+ (with substance)/% CD62p+ (without) [1, 9]: 2.8
- ΔCD62p+ %: percentage increases in CD62p positive platelets [1, 9]: 56.4%
- platelet heparin activation ratios % CD62p+ (0.3 IU heparin)/% CD62p+ (0 IU heparin) ([1]; all HIT Ab positive plasma samples, the two donors): above 2
- platelet activation ([1]; in the absence of patient's HIT Ab): not activated

— patent US20110172182A1, “Carboxyethylated Cyclodextrin Polysulfates Useful As Medicaments” (ARCARIOS B.V., priority 2008, published 2011)
